Like-named read-outs stand apart in the source and are kept apart here. One block for each compound: values may come before it.
What was measured:
[1] = target: GSK3α (GST-full length GSK3α) (Homo sapiens (Human), UniProt P49840); assay: GSK3α TR-FRET kinase assay; assay type: biochemical
Experimental: (§1) TR-FRET Assay: The assay was performed in a white, 384 well, low volume, flat bottom plate (Grenier). After a 30 minute preincubation in assay buffer with the indicated concentration of compound, the kinase activity was initiated by the addition of the substrates. 1 nM GSK3α (GST-full length GSK3α [SignalChem G08-10G]) or 1 nM GSK3b (GST-full length GSK3b: [SignalChem G08-9G]) were then incubated at ambient temperature for 100 minutes in 10 μL of 50 mM Tris, pH 7.5, 20 mM MgCl2, 0.05 mM DTT, 100 μg/mL BSA and 1% DMSO, with 200 nM biotinylated peptide substrate (biotinylated and S645 phosphorylated glycogen synthase 631-650) and either 4 μM ATP (GSK3α, Table 16) or 2 μM ATP (GSK3b, Table 16) or 1 mM ATP (Table 17). The kinase activity was quenched with 2 μL of 250 mM EDTA. A 10 μL volume of 40 nM Strepavidin-d2, 2 nM Tb^2+-pSer641 antibody in TR-FRET Detection Buffer (Invitrogen) was then added. After 60 min at room temperature the plate was read on Envision plate reader using Ex: 340 nm, Em: 615 nm and […]. The normalized 665/615 Signal ratio versus log compound concentration was analyzed by XLFIT to yield IC50 values.

[2] = target: GSK3b (GST-full length GSK3b) (Homo sapiens (Human), UniProt P49841); assay: GSK3b TR-FRET kinase assay; assay type: biochemical
Sequence of GSK3b (GST-full length GSK3b) (P49841 whole entry): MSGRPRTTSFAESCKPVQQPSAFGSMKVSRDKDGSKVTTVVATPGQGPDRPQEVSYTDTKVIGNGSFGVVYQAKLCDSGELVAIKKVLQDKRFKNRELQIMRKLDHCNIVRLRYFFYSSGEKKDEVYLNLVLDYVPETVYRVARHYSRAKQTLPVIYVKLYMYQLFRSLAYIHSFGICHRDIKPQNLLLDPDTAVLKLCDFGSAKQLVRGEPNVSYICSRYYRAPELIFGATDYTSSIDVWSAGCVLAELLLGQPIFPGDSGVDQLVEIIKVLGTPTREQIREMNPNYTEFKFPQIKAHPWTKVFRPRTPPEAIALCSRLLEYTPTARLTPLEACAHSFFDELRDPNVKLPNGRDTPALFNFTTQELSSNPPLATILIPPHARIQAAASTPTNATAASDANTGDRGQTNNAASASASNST
Experimental: as §1

[3] = 1 nM GSK3α, 4 μM ATP, 30 minute preincubation, geometric mean, read-out: GSK3-A TR-FRET BIOCHEMICAL (TR-FRET), GMean, IC50
[4] = 1 nM GSK3b, 2 μM ATP, 30 minute preincubation, geometric mean, read-out: GSK3-B TR-FRET BIOCHEMICAL (TR-FRET), GMean, IC50
[5] = 1 nM GSK3α, 4 μM ATP, 30 minute preincubation, Table 16, read-out: GSK3-A TR-FRET BIOCHEMICAL (TR-FRET), IC50
[6] = 1 nM GSK3b, 2 μM ATP, 30 minute preincubation, Table 16, read-out: GSK3-B TR-FRET BIOCHEMICAL (TR-FRET), IC50
[7] = read-out: GSK3-B (TR-FRET 1 mM ATP), GMean, IC50, 1 mM ATP, geometric mean
[8] = 1 nM GSK3b, 2 μM ATP, 30 minute preincubation, read-out: GSK3-B TR-FRET BIOCHEMICAL (TR-FRET), IC50
[9] = 1 nM GSK3b, 2 μM ATP, 30 minute preincubation, Table 16, read-out: GSK3-B TR-FRET BIOCHEMICAL (TR-FRET)

Sequence of GSK3α (GST-full length GSK3α) (P49840 whole entry): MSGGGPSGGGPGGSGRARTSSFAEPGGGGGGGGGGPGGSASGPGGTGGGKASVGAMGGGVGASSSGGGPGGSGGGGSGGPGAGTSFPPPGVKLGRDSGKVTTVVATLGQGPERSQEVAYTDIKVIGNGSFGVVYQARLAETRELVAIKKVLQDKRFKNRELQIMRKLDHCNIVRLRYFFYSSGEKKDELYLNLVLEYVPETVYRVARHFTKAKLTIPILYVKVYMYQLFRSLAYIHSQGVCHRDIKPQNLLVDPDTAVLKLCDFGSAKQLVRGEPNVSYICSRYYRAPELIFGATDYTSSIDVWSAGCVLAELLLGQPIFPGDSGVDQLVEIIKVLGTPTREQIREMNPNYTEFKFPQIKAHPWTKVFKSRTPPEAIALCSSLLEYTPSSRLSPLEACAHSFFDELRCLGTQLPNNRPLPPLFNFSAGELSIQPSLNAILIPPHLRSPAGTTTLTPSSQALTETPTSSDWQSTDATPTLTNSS

SMILES: CCC1(c2cccc(C(F)(F)F)c2)C2=C(CC(C)CC2=O)Nc2n[nH]cc21 (mixture of isomers) [Compound 801397]
IC50 [1, 3]: ≤ 100 nM
IC50 [2, 4]: 100 to 1000 nM

SMILES: CCC1(c2cccc(Br)c2)C2=C(CC(C)(C)C(F)C2=O)Nc2n[nH]cc21 (mixture of isomers) [Compound 826764]
IC50 [1, 3]: ≤ 100 nM
IC50 [2, 4]: 100 to 1000 nM

SMILES: CCC1(c2cccc(-c3ccncc3C)c2)C2=C(CC(C)(COC)NC2=O)Nc2n[nH]cc21 (mixture of isomers) [Compound 948127]
IC50 [1, 3]: 100 to 1000 nM
IC50 [2, 4]: > 5000 nM

SMILES: CCC1(c2cccc(C(F)(F)F)c2)C2=C(Nc3n[nH]cc31)C(F)C(C)(C)CC2=O (single isomer, unassigned) [Compound 837683, 4-ethyl-8-fluoro-7,7-dimethyl-4-(3-(trifluoromethyl)phenyl)-2,4,6,7,8,9-hexahydro-5H-pyrazolo[3,4-b]quinolin-5-one]
IC50 [1, 3]: ≤ 100 nM
IC50 ([1]; GSK3-A (TR-FRET 1 mM ATP), GMean, IC50, 1 mM ATP, geometric mean): 100 to 1000 nM
IC50 [2, 4]: 100 to 1000 nM
IC50 ([2]; GSK3-B (TR-FRET 1 mM ATP), GMean, IC50, 1 mM ATP, geometric mean): > 5000 nM

SMILES: CCC1(c2cccc(C3CCOCC3)c2)C2=C(CC(C)(C)CC2=O)Nc2n[nH]cc21 (stereo not shown) [Compound 791273]
IC50 [2, 4]: 100 to 1000 nM

SMILES: CCC1(c2cccc(C(F)(F)F)c2)C2=C(CC(C)NC2=O)Nc2n[nH]cc21 (stereo not shown) [Compound 912096]
IC50 [2, 8]: 100 to 1000 nM

SMILES: CCC1(c2cccc(C(F)(F)F)c2)C2=C(Nc3n[nH]cc31)C(C)N(C)C2=O (stereo not shown) [Compound 913454]
IC50 [2, 9]: 100 to 1000 nM

SMILES: CC[C@@]1(c2cccc(C(F)(F)F)c2)C2=C(Nc3n[nH]cc31)[C@H](C)N(C)C2=O [Compound 913473]
IC50 [2, 9]: 100 to 1000 nM

SMILES: CCC1(c2cccc(-c3cnn(C)c3)c2)C2=C(CC(C)(C)NC2=O)Nc2n[nH]c(C)c21 (stereo not shown) [Compound 944027]
IC50 [2, 8]: 100 to 1000 nM

SMILES: CCC1(c2cccc(N3CCCCC3)c2)C2=C(CC(C)(C)NC2=O)Nc2n[nH]c(C(F)(F)F)c21 (stereo not shown) [Compound 947861]
IC50 [2, 7]: 100 to 1000 nM

SMILES: CCC1(c2cccc(C(F)(F)F)c2)C2=C(CCN(c3cccc(C)c3)C2=O)Nc2n[nH]cc21 (stereo not shown) [Compound 948052]
IC50 [2, 4]: 100 to 1000 nM

The remaining lines, values ahead:

IC50 [1, 5]: 100 to 1000 nM
IC50 [2, 6]: 100 to 1000 nM
SMILES: CCC1(c2cccc(N3CCCC3C)c2)C2=C(CC(C)(C)CC2=O)Nc2n[nH]cc21 (mixture of isomers) [Compound 885188]

IC50 [1, 5]: 100 to 1000 nM
IC50 [2, 6]: 100 to 1000 nM
SMILES: CCC1(c2cccc(N3CCCCC3C)c2)C2=C(CC(C)(C)CC2=O)Nc2n[nH]cc21 (mixture of isomers) [Compound 885217]

IC50 [2, 7]: > 5000 nM
SMILES: CC(C)(C)Cc1[nH]nc2c1C(C)(c1cc(S(C)(=O)=O)ccc1F)C1=C(CC(C)(C)CC1=O)N2 (stereo not shown) [Compound 125977]

IC50 [2, 7]: > 5000 nM
SMILES: CN(C)S(=O)(=O)c1cccc(C2(C)C3=C(CC(C)(C)CC3=O)Nc3n[nH]c(CC(C)(C)C)c32)c1 (stereo not shown) [Compound 126013]

IC50 [2, 7]: > 5000 nM
SMILES: C[S+]([O-])c1cccc(C2(C)C3=C(CC(C)(C)CC3=O)Nc3n[nH]c(CC(C)(C)C)c32)c1 (stereo not shown) [Compound 126193]

IC50 ([1]; read-out: GSK3-A (TR-FRET 1 mM ATP), GMean, IC50, 1 mM ATP, geometric mean): > 5000 nM
SMILES: Cn1cc(-c2cccc(C3(C)C4=C(CC(C)(C)CC4=O)Nc4n[nH]c(CC(C)(C)C)c43)c2)cn1 (stereo not shown) [Compound 126394]

IC50 [2, 7]: > 5000 nM
SMILES: Cc1ccc(S(C)(=O)=O)cc1C1(C)C2=C(CC(C)(C)CC2=O)Nc2n[nH]c(CC(C)(C)C)c21 (stereo not shown) [Compound 126398]

IC50 [2, 7]: > 5000 nM
SMILES: CC(C)(C)Cc1[nH]nc2c1C(C)(c1cccc(N3CCOCC3)c1)C1=C(CC(C)(C)CC1=O)N2 (stereo not shown) [Compound 126399]

IC50 [2, 4]: 100 to 1000 nM
SMILES: CCC1(c2cccc(-c3ccncn3)c2)C2=C(CC(C)(C)CC2=O)Nc2n[nH]cc21 (stereo not shown) [Compound 810488]

IC50 [2, 9]: 100 to 1000 nM
SMILES: CCC1(c2cccc(-c3ncnn3C)c2)C2=C(CC(C)(C)CC2=O)Nc2n[nH]cc21 (stereo not shown) [Compound 945472]

IC50 [2, 9]: 100 to 1000 nM
SMILES: CCC1(c2cccc(N(C)c3cc(C)ccn3)c2)C2=C(CC(C)(C)CC2=O)Nc2n[nH]cc21 (stereo not shown) [Compound 945609]

IC50 [2, 7]: 100 to 1000 nM
SMILES: CCC1(c2cccc(-c3c(C)nnn3C)c2)C2=C(CC(C)(C)CC2=O)Nc2n[nH]cc21 (stereo not shown) [Compound 946099]

Reference: patent US20250313563A1, “GLYCOGEN SYNTHASE KINASE 3 INHIBITORS AND USES THEREOF” (The Broad Institute, Inc., priority 2022, published 2025)
